Measurements taken from patent publication US9284321B2, “Piperazino[1,2-a]indol-1-ones and [1,4]diazepino[1,2-a]indol-1-one” (Hoffmann-La Roche Inc., priority 2012, dated 2016).

Tests used:
[1] = tested on: human embryonic stem cell derived neural stem cells (NSCs); experiment: Neural Stem Cell Proliferation Assay (neurogenesis assay, ATP levels by CellTiterGlo); assay type: cell-based; details: 96 h, compound concentration at which 150% activity of control (100%) is reached, NSC proliferation by ATP level after 4 days incubation, dose response 8 μM to 8 nM
Method in brief: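 Human ESC-derived NSCs (dual SMAD inhibition) seeded 4 h before compounds, 11-point 2-fold series 8 μM–8 nM; 4 days at 37 °C, 5% CO2. ATP by CellTiterGlo luminescence as cell-number proxy, response as % of media control (0.25% DMSO); EC150 = concentration giving 150% of control.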

Row | Structure (SMILES) | EC (150% of control) [1] [µM] | melting point [°C]
1 | O=C1NCCn2c1cc1cc(F)c(F)c(-c3ccc(F)cc3)c12 [Example 38, 7,8-Difluoro-6-(4-fluoro-phenyl)-3,4-dihydro-2H-pyrazino[1,2-a]indol-1-one] | 0.03 | 286.5
2 | Cc1c2n(c3c(-c4ccc(Cl)cc4Cl)cc(Cl)cc13)CCNC2=O [Example 102, 8-Chloro-6-(2,4-dichloro-phenyl)-10-methyl-3,4-dihydro-2H-pyrazino[1,2-a]indol-1-one] | 0.009 | 213
3 | COc1ccc(-c2cccc3cc4n(c23)[C@H](C)CNC4=O)cc1 [Example 2, (R)-6-(4-Methoxy-phenyl)-4-methyl-3,4-dihydro-2H-pyrazino[1,2-a]indol-1-one] | 0.85 | 247
4 | N#Cc1cc(-c2cc(F)c(F)c(F)c2)c2c(c1)cc1n2CCNC1=O [Example 189, 1-Oxo-6-(3,4,5-trifluorophenyl)-3,4-dihydro-2H-pyrazino[1,2-a]indole-8-carbonitrile] | 0.22 | 304.5
5 | Cc1c2n(c3c(-c4cccnc4)cc(F)cc13)CCNC2=O [Example 152, 8-Fluoro-10-methyl-6-pyridin-3-yl-3,4-dihydro-2H-pyrazino[1,2-a]indol-1-one] | 0.13 | 239
6 | Cc1c2n(c3c(-c4ccc(OC(F)(F)F)cc4)cc(F)cc13)CCNC2=O [Example 149, 8-Fluoro-10-methyl-6-(4-trifluoromethoxy-phenyl)-3,4-dihydro-2H-pyrazino[1,2-a]indol-1-one] | 0.016 | 162
7 | Cc1c2n(c3c(-c4ccc(F)c(F)c4)cc(F)cc13)CCNC2=O [Example 72, 6-(3,4-Difluoro-phenyl)-8-fluoro-10-methyl-3,4-dihydro-2H-pyrazino[1,2-a]indol-1-one] | 0.12 | 229.5
8 | Cc1c2n(c3c(-c4cccc(C#N)c4)cc(F)cc13)CCNC2=O [Example 131, 3-(8-Fluoro-10-methyl-1-oxo-1,2,3,4-tetrahydro-pyrazino[1,2-a]indol-6-yl)-benzonitrile] | 0.33 | 192
9 | COc1cc(-c2ccc(F)c(F)c2)c2c(c1)cc1n2CCNC1=O [Example 212, 6-(3,4-Difluorophenyl)-8-methoxy-3,4-dihydro-2H-pyrazino[1,2-a]indol-1-one] | 1.24 | 216
10 | Cc1c2n(c3c(-c4ccc([N+](=O)[O-])cc4)cc(Cl)cc13)CCNC2=O [Example 109, 8-Chloro-10-methyl-6-(4-nitro-phenyl)-3,4-dihydro-2H-pyrazino[1,2-a]indol-1-one] | 0.007 | 313.5
11 | Cc1c2n(c3c(-c4ccc(Cl)c(Cl)c4)cc(Cl)cc13)CCNC2=O [Example 97, 8-Chloro-6-(3,4-dichloro-phenyl)-10-methyl-3,4-dihydro-2H-pyrazino[1,2-a]indol-1-one] | 0.056 | 240
12 | Cc1c2n(c3c(-c4ccnc(Cl)c4)cc(F)cc13)CCNC2=O [Example 140, 6-(2-Chloro-pyridin-4-yl)-8-fluoro-10-methyl-3,4-dihydro-2H-pyrazino[1,2-a]indol-1-one] | 0.12 | 254
13 | N#Cc1cc(-c2ccnc(F)c2)c2c(c1)cc1n2CCCNC1=O [Example 220, 7-(2-Fluoropyridin-4-yl)-1-oxo-2,3,4,5-tetrahydro-[1,4]diazepino[1,2-a]indole-9-carbonitrile] | 0.5 | 275
14 | Cc1c2n(c3c(-c4ccncc4)cc(Cl)cc13)CCNC2=O [Example 91, 8-Chloro-10-methyl-6-pyridin-4-yl-3,4-dihydro-2H-pyrazino[1,2-a]indol-1-one] | 0.017 | 295
15 | N#Cc1cccc(-c2cc(C#N)cc3cc4n(c23)CCCNC4=O)c1 [Example 269, 7-(3-Cyanophenyl)-1-oxo-2,3,4,5-tetrahydro-[1,4]diazepino[1,2-a]indole-9-carbonitrile] | 1.09 | 225.5
16 | O=C1NCCn2c1cc1c(F)c(F)cc(-c3ccc(Cl)cc3)c12 [Example 34, 6-(4-Chloro-phenyl)-8,9-difluoro-3,4-dihydro-2H-pyrazino[1,2-a]indol-1-one] | 1.4 | 327
17 | Cc1c2n(c3c(-c4ccc(CO)cc4)cc(Cl)cc13)CCNC2=O [Example 110, 8-Chloro-6-(4-hydroxymethyl-phenyl)-10-methyl-3,4-dihydro-2H-pyrazino[1,2-a]indol-1-one] | 0.014 | 211
18 | Cc1ccc(-c2cc(F)cc3cc4n(c23)[C@H](C)CNC4=O)cc1 [Example 8, (R)-8-Fluoro-4-methyl-6-p-tolyl-3,4-dihydro-2H-pyrazino[1,2-a]indol-1-one] | 0.048 | 294.5

Row | Structure (SMILES) | EC (150% of control) [1] [µM] | melting point [°C]
19 | Cc1c2n(c3c(-c4ccnc(F)c4)cc(Cl)cc13)CCNC2=O [Example 108, 8-Chloro-6-(2-fluoro-pyridin-4-yl)-10-methyl-3,4-dihydro-2H-pyrazino[1,2-a]indol-1-one] | 0.021 | 290.5
20 | N#Cc1cc(-c2ccc(Cl)cc2)c2c(c1)cc1n2CCCNC1=O [Example 214, 7-(4-Chlorophenyl)-1-oxo-2,3,4,5-tetrahydro-[1,4]diazepino[1,2-a]indole-9-carbonitrile] | 0.14 | 245.5
21 | O=C1NCCn2c1cc1c(F)c(F)cc(-c3ccc(F)c(F)c3)c12 [Example 35, 6-(3,4-Difluoro-phenyl)-8,9-difluoro-3,4-dihydro-2H-pyrazino[1,2-a]indol-1-one] | 2.6 | 317.5
22 | Cc1c2n(c3c(-c4cc(F)c(F)c(F)c4)cc(C#N)cc13)CCNC2=O [Example 240, 10-Methyl-1-oxo-6-(3,4,5-trifluorophenyl)-3,4-dihydro-2H-pyrazino[1,2-a]indole-8-carbonitrile] | 0.11 | 253
23 | N#Cc1cc(-c2cccc(Cl)c2)c2c(c1)cc1n2CCNC1=O [Example 193, 6-(3-Chlorophenyl)-1-oxo-3,4-dihydro-2H-pyrazino[1,2-a]indole-8-carbonitrile] | 0.32 | 241.5
24 | O=C1NCCn2c1cc1cc(F)c(F)c(-c3ccc(Cl)cc3)c12 [Example 45, 6-(4-Chloro-phenyl)-7,8-difluoro-3,4-dihydro-2H-pyrazino[1,2-a]indol-1-one] | 0.076 | 332.5
25 | Cc1c2n(c3c(-c4ccc(Cl)cc4)cc(C#N)cc13)CCNC2=O [Example 163, 6-(4-Chloro-phenyl)-10-methyl-1-oxo-1,2,3,4-tetrahydro-pyrazino[1,2-a]indole-8-carbonitrile] | 0.013 | 298
26 | Cc1c2n(c3c(-c4ccncc4)cc(F)cc13)CCNC2=O [Example 83, 8-Fluoro-10-methyl-6-pyridin-4-yl-3,4-dihydro-2H-pyrazino[1,2-a]indol-1-one] | 0.039 | 290
27 | Cc1c2n(c3c(-c4ccc(F)cc4)cc(F)cc13)CCNC2=O [Example 74, 8-Fluoro-6-(4-fluoro-phenyl)-10-methyl-3,4-dihydro-2H-pyrazino[1,2-a]indol-1-one] | 0.072 | 182
28 | COc1ccc(-c2cc(F)c(F)c3cc4n(c23)CCNC4=O)cc1 [Example 33, 8,9-Difluoro-6-(4-methoxy-phenyl)-3,4-dihydro-2H-pyrazino[1,2-a]indol-1-one] | 0.22 | 227.5
29 | Cc1c2n(c3c(-c4ccc(Cl)cc4F)cc(Cl)cc13)CCNC2=O [Example 101, 8-Chloro-6-(4-chloro-2-fluoro-phenyl)-10-methyl-3,4-dihydro-2H-pyrazino[1,2-a]indol-1-one] | 0.006 | 251.5
30 | Cc1c2n(c3c(-c4cccnc4)cc(C#N)cc13)CCNC2=O [Example 282, 10-Methyl-1-oxo-6-pyridin-3-yl-3,4-dihydro-2H-pyrazino[1,2-a]indole-8-carbonitrile] | 0.96 | 273
31 | COc1cc(-c2ccc(Cl)cc2)c2c(c1)cc1n2CCNC1=O [Example 211, 6-(4-Chlorophenyl)-8-methoxy-3,4-dihydro-2H-pyrazino[1,2-a]indol-1-one] | 1.54 | 246
32 | O=C1NCCn2c1cc1cc(F)cc(-c3ccccc3)c12 [Example 12, 8-Fluoro-6-phenyl-3,4-dihydro-2H-pyrazino[1,2-a]indol-1-one] | 0.037 | 236.5
33 | Cc1c2n(c3c(-c4ccc(F)c(F)c4F)cc(Cl)cc13)CCNC2=O [Example 153, 8-Chloro-10-methyl-6-(2,3,4-trifluoro-phenyl)-3,4-dihydro-2H-pyrazino[1,2-a]indol-1-one] | 0.029 | 205.5
34 | O=C1NCCn2c1cc1cc(F)cc(-c3ccncc3)c12 [Example 21, 8-Fluoro-6-pyridin-4-yl-3,4-dihydro-2H-pyrazino[1,2-a]indol-1-one] | 0.036 | 323.5
35 | Cc1c2n(c3c(-c4ccc(C(C)(C)C)cc4)cc(Cl)cc13)CCNC2=O [Example 118, 6-(4-tert-Butyl-phenyl)-8-chloro-10-methyl-3,4-dihydro-2H-pyrazino[1,2-a]indol-1-one] | 0.15 | 252
36 | N#Cc1cc(-c2ccc(F)c(F)c2F)c2c(c1)cc1n2CCNC1=O [Example 202, 1-Oxo-6-(2,3,4-trifluorophenyl)-3,4-dihydro-2H-pyrazino[1,2-a]indole-8-carbonitrile] | 0.046 | 294
